Tests used:
Type in all cases: in vivo, C57BL/6 mice
[1] = test system: myelin in spinal cord of EAE mice; test: TEM of spinal cord sections from EAE mice (myelination); conditions: 0.03 mg/kg i.p. daily from day 17, day 45
Protocol: Experimental detail: EAE was induced in female C57BL/6 mice as described in Example 1. On day 17, mice were started on daily treatment with vehicle only or nalmefene at 0.03 mg/kg by i.p. injection. On day 45 after immunization to induce EAE, mice were culled and spinal cords were processed for transmission electron microscopy (TEM).

[2] = test system: lymphocyte populations in the spleen of EAE mice; test: Splenocyte flow cytometry in chronic phase of EAE; conditions: 0.01 mg/kg i.p. daily, 27 days post treatment initiation
Protocol: Experimental detail: EAE was induced in female C57BL/6 mice as described in Example 1. On the day of disease onset (score >1), mice were started on daily treatment with vehicle only or nalmefene at 0.01 mg/kg by i.p. injection. During the chronic phase (27 days post treatment initiation), mice were culled and their splenocytes assessed by flow cytometry. The percentage of the major lymphocyte populations were identified using CD4 (CD4 T helper cells), CD8 (CD8 cytotoxic T cells), and B220 (B cells), and expressed as % live leukocytes (i.e. CD45^+ cells). Shown are the means and standard error of individual mice with n=3 (healthy), 4 (vehicle) and 9 (NaIM). No significant differences were found between vehicle and healthy or nalmefene by one-way ANOVA with Holm-Sidak's multiple comparison test.
Experimental detail: EAE was induced in female C57BL/6 mice as described in Figure A. On the day of disease onset (score >1), mice were started on daily treatment with vehicle only or nalmefene at 0.01 mg/kg by i.p. injection. During the chronic phase (27 days post treatment initiation), mice were culled and their splenocytes assessed by flow cytometry. Naïve CD4 T cells (CD4^+CD44^−CD62L^high), effector CD4 T cells (CD4^+CD44^+CD62L^−), and central memory CD4T cells (CD4^+CD44^+CD62L^high) are expressed as % CD4 T cells. “Teff:cm ratio” is the ratio of effector to central memory T cells. […]

[3] = test system: spinal cord of EAE mice; test: Luxol fast blue histology of spinal cord, % demyelination in EAE mice; conditions: 0.01 mg/kg i.p. daily from disease onset, chronic phase
Protocol: Experimental detail: EAE was induced in female C57BL/6 mice as described in Example 1. On the day of disease onset (score >1), mice were started on daily treatment with vehicle only or nalmefene at 0.01 mg/kg by i.p. injection. During the chronic phase (>24 days post treatment initiation), mice were culled, perfused with 4% paraformaldehyde and spinal cords were processed for histology. […] Shown are the means and standard error of individual values from vehicle (n=7) or 0.01 (n=3) nalmefene-treated EAE mice. *p<0.05 by one-way ANOVA with Holm-Sidak's multiple comparison test.

[4] = test system: experimental autoimmune encephalomyelitis (EAE) mice; test: EAE model of MS, daily disease score (paralysis), treatment from day 17
Protocol: Experimental detail: Female, C57BL/6 mice were immunized subcutaneously (s.c.) in the hind flanks to induce EAE using myelin oligodendrocyte glycoprotein (MOG) peptide 35-55 (50 μg/mouse) in complete Freund's adjuvant containing heat-killed Mycobacterium tuberculosis (500 μg/mouse). In addition, pertussis toxin (200 ng/mouse) was administered intraperitoneally (i.p.) on days 0 and 2. Mice were weighed and scored daily. On day 17 (dotted line), mice were started on daily treatment with vehicle only (Veh; 10% tween and 10% DMSO in saline) or Nalmefene (NaIM) at 0.1, 0.03, or 0.01 mg/kg by i.p. injection. Nalmefene was supplied by University of Kansas, Synthetic Chemical Biology Core Laboratory, 97.6% pure by HPLC). Treatment allocation was blinded. The disease was scored from 0-5 with 0 (normal), 1 (partial tail paralysis), 2 (full tail paralysis), 3 (one hind limb paralysed or severe disability in both hind limbs), 4 (complete paralysis of both hind limbs) and 5 (moribund). This model is a standard disease model for multiple sclerosis and is described in White et al. 2018. Scientific Reports. 8:259 which is incorporated herein by reference in its entirety. Shown are results combined from 2 independent experiments. ****p<0.0001 by one-way ANOVA with Dunnett's multiple comparison test.
Experimental detail: EAE was induced in female C57BL/6 mice as described in Example 1. On day 17, mice were started on daily treatment with vehicle only (Veh) or nalmefene (NaIM) at 0.1 or 0.03 mg/kg by i.p. injection. The area under the curve (AUC) was calculated for each mouse based upon the daily disease score and represents the total disability experienced. Shown are results from 1 representative experiment. *p<0.05 by one-way ANOVA with Dunnett's multiple comparison test.
Experimental detail: EAE was induced in female C57BL/6 mice as described in Example 1. On day 17 (dotted line), mice were started on daily treatment with vehicle only (Veh) or nalmefene (NaIM) at 0.1 or 0.03 mg/kg by i.p. injection. Shown are mice that were not sick at the time of treatment but developed disease later. *p<0.05 by two-way ANOVA with Holm-Sidak's multiple comparison test.

[5] = treated prior to disease onset, 0.1 or 0.03 mg/kg i.p. daily from day 17

Question: With `C=C1CC[C@@]2(O)[C@H]3Cc4ccc(O)c5c4[C@@]2(CCN3CC2CC2)[C@H]1O5` [nalmefene, (4R,4aS,7aS,12bS)-3-(cyclopropylmethyl)-7-methylidene-2,4,5,6,7a,13-hexahydro-1H-4,12-methanobenzofuro[3,2-e]isoquinoline-4a,9-diol] as the molecule, how does the “myelination of nerve axons in spinal cord (TEM)” value [1] read?
Answer: nerve axons appear healthy and well myelinated

Question: What about the “Teff:cm ratio (effector to central memory CD4 T cells) in spleen” value [2] of the same molecule?
Answer: reduced ratio

Question: And the “proportion of major lymphocyte populations in the spleen (CD4, CD8, B220; % live leukocytes)” value [2]?
Answer: does not alter the proportion of the major lymphocyte populations in the spleen

Question: And the “% demyelination of spinal cord (luxol fast blue)” value [3]?
Answer: significant reduction demyelination

Question: What about the “disease score (recovery from paralysis)” value ([4]; 0.1, 0.03 or 0.01 mg/kg i.p. daily from day 17, 45 days) of the same molecule?
Answer: reduction of disease in all nalmefene-treated groups indicates recovery from paralysis

Question: What about the “reduction in disease (total disability, AUC of daily disease score)” value ([4]; 0.1 and 0.03 mg/kg i.p. daily from day 17, by day 45) of the same molecule?
Answer: 70%

Question: And the “total disability (AUC of disease score)” value ([4]; 0.1 or 0.03 mg/kg i.p. daily from day 17, by day 45)?
Answer: significantly lower total disability

Question: What about the onset of disease [4, 5] of the same molecule?
Answer: did not alter the onset of disease

Question: And the “recovery from paralysis (disease score)” value [4, 5]?
Answer: rapid recovery from paralysis
